Results: ChEMBL document CHEMBL5465560, “Selectivity Literature for EUbOPEN Chemogenomic Library” (2024)

Columns and labels:
[1] = biological target: Cyclin-dependent kinase 9 (Homo sapiens, UniProt P50750); assay: Selectivity interaction (KinomeScan (DiscoverX)) EUB0000655a CDK9; details: at 10 µM
[2] = biological target: Casein kinase I isoform alpha (Homo sapiens, UniProt P48729); assay: Selectivity interaction (KinomeScan (DiscoverX)) EUB0001079a CSNK1A1; details: at 1 µM
[3] = biological target: Ribosomal protein S6 kinase alpha-2 (Homo sapiens) (UniProt Q15349); assay: Selectivity interaction (KinomeScan (DiscoverX)) EUB0001079a RPS6KA2; details: at 1 µM
D(1A) dopamine receptor = D(1A) dopamine receptor (Homo sapiens, UniProt P21728); assay: Selectivity interaction (Dopamine D1 - cAMP agonist mode ) EUB0000877a DRD1
[4] = biological target: T1, Serine/threonine-protein kinase 17A (Homo sapiens) (UniProt Q9UEE5); details: at 10 µM
T1 sequence (whole entry): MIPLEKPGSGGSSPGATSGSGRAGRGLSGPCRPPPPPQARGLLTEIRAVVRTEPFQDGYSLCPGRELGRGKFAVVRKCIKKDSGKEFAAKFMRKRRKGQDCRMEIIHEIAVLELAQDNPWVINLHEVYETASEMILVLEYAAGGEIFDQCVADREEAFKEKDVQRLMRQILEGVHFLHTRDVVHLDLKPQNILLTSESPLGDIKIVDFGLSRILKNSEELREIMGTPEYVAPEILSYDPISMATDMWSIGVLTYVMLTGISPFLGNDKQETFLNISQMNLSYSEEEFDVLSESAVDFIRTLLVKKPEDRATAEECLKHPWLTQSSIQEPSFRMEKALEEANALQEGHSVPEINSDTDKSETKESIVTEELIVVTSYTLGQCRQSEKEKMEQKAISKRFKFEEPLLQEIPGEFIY

[5] = biological target: Fibroblast growth factor receptor 4 (Homo sapiens, UniProt P22455); assay: Selectivity interaction (Kinase panel (Z-LYTE Assay)) EUB0001632a FGFR4; details: at 10 µM
[6] = biological target: Histone-lysine N-methyltransferase ASH1L (Homo sapiens) (UniProt Q9NR48); assay: Selectivity interaction (Transferase panel (protein, RNA, and DNA methyltransferases. and EP300 (acetyltransferase))) EUB0000270b ASH1L
[7] = biological target: Protein-tyrosine kinase 6 (Homo sapiens, UniProt Q13882)
Insulin receptor = Insulin receptor (Homo sapiens, UniProt P06213); assay: Selectivity interaction (ActivX KiNativ screen (kinase selectivity in THP-1 cell lysates)) EUB0000639a INSR; assay type: subcellular; details: lysate
[8] = biological target: Serine/threonine-protein kinase Nek7 (Homo sapiens) (UniProt Q8TDX7); assay: Selectivity interaction (ActivX KiNativ screen (kinase selectivity in THP-1 cell lysates)) EUB0000639a NEK7; assay type: subcellular; details: lysate, at 1 µM
[9] = biological target: Tyrosine-protein kinase CSK (Homo sapiens) (UniProt P41240); assay: Selectivity interaction (Kinase panel (literature)) EUB0001199aCl CSK; details: at 1 µM
[10] = biological target: Mitogen-activated protein kinase kinase kinase 11 (Homo sapiens) (UniProt Q16584); assay: Selectivity interaction (KinomeScan (DiscoverX)) EUB0000618a MAP3K11; details: at 10 µM
[11] = biological target: T2, Discoidin domain-containing receptor 2 (Homo sapiens) (UniProt Q16832); assay: Selectivity interaction (Ambit KINOMEscan and KiNATiv profiling in Jurkat cells) EUB0000090b DDR2; assay type: cell-based; details: at 1 µM
T2 sequence (whole entry): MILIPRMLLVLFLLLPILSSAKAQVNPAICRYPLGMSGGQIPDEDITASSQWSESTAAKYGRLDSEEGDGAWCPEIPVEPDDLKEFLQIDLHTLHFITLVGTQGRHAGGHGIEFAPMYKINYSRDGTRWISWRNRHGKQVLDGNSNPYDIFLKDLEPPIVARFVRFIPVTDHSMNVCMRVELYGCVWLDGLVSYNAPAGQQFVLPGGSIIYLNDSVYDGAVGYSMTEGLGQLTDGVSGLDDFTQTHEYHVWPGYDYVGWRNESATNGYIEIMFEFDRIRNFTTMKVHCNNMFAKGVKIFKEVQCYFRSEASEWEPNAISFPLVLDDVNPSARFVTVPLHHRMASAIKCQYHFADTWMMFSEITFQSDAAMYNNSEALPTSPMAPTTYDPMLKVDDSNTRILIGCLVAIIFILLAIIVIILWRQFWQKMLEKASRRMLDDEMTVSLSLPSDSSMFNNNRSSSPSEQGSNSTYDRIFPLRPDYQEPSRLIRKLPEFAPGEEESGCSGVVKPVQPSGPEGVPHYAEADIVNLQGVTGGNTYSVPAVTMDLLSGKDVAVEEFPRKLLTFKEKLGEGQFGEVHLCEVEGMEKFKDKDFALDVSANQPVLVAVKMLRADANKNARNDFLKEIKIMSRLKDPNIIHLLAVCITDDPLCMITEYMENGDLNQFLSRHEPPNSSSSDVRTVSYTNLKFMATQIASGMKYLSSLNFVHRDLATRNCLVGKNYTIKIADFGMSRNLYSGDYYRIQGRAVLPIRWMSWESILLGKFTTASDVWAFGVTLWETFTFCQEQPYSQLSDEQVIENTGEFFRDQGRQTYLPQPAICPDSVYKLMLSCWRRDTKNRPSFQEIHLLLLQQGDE

[12] = biological target: Serine/threonine-protein kinase PAK 2 (Homo sapiens) (UniProt Q13177); assay: Selectivity interaction (Kinase screening (Nanosyn)) EUB0000604a PAK2
[13] = biological target: Protein arginine N-methyltransferase 5 (Homo sapiens, UniProt O14744); details: at 10 µM
[14] = biological target: Ribosomal protein S6 kinase alpha-3 (Homo sapiens, UniProt P51812); assay: Selectivity interaction (KinomeScan (DiscoverX)) EUB0001619a RPS6KA3; details: at 1 µM
Ribosomal protein S6 kinase alpha-3, sequence (P51812 whole entry): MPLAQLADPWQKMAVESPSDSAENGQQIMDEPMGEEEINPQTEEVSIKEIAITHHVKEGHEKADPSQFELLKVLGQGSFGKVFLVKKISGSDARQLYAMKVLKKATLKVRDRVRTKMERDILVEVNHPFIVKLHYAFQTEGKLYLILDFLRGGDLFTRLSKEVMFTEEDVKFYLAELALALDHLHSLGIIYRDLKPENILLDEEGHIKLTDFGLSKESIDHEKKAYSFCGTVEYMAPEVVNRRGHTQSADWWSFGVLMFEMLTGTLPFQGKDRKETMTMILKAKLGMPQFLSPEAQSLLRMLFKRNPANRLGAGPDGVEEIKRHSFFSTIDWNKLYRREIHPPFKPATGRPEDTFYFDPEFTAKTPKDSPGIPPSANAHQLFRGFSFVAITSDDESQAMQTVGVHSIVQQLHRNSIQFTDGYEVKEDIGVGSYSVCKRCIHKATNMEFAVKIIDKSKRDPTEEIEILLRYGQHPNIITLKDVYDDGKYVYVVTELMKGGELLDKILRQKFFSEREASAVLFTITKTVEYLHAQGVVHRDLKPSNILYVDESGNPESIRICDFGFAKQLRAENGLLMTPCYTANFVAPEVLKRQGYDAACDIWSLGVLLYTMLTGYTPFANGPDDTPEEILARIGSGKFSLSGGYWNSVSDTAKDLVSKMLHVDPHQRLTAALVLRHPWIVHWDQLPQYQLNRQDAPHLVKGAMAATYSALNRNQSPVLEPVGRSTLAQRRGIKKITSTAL

Insulin receptor, sequence (P06213 28-758 limits assumed): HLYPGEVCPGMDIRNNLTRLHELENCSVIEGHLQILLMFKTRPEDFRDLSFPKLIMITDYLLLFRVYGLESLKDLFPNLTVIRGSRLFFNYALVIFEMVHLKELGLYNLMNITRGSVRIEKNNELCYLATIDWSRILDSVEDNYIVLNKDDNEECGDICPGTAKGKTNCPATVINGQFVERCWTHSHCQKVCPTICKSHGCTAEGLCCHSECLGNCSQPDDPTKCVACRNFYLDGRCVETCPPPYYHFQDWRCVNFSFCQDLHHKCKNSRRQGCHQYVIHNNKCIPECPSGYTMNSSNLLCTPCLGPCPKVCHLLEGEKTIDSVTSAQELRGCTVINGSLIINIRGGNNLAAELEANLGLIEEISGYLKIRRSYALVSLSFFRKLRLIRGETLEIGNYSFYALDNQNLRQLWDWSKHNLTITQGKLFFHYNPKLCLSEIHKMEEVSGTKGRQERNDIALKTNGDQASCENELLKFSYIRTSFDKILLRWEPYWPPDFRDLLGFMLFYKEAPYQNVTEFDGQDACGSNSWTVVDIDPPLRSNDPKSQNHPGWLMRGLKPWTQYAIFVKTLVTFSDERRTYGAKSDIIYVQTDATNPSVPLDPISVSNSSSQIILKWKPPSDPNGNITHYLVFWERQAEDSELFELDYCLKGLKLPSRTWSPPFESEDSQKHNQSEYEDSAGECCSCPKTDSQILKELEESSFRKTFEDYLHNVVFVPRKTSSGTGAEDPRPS
Insulin receptor, sequence (P06213 763-1382 limits assumed): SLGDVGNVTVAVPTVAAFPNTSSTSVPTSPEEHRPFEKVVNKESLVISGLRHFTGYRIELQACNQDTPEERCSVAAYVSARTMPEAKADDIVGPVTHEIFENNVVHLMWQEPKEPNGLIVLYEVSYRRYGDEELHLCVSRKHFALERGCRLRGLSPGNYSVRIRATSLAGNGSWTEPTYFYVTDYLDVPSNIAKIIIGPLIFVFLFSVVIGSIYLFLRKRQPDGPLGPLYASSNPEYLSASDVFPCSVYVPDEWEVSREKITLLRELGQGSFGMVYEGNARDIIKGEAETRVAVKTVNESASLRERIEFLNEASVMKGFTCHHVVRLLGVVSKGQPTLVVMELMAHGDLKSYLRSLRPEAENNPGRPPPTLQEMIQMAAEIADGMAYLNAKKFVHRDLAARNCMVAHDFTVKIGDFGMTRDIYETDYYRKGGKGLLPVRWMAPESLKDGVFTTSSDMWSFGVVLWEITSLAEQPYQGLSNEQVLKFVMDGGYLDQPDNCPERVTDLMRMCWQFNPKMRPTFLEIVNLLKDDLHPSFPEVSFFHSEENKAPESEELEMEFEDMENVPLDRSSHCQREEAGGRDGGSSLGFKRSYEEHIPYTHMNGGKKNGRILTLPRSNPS
Ribosomal protein S6 kinase alpha-2 (Homo sapiens), sequence (Q15349 whole entry): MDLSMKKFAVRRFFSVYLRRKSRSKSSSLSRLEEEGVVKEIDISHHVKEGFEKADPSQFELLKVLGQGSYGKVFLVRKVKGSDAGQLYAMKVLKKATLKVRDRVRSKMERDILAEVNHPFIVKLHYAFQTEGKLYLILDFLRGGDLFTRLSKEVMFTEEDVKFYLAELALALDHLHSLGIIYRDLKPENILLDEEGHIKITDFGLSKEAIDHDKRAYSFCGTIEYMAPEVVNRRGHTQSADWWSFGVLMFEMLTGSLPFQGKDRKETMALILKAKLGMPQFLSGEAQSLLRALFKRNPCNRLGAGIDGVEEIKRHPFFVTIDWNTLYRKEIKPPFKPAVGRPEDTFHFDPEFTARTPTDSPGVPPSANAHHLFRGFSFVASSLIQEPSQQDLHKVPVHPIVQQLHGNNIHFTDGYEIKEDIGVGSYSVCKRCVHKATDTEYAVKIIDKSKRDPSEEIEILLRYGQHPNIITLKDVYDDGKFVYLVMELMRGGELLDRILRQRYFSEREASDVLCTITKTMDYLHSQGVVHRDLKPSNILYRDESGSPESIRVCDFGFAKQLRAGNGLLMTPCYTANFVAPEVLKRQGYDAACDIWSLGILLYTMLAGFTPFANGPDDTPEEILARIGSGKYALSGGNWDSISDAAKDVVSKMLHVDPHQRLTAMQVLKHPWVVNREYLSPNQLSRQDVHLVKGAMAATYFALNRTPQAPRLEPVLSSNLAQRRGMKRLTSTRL
Casein kinase I isoform alpha, sequence (P48729 2-337 limits assumed): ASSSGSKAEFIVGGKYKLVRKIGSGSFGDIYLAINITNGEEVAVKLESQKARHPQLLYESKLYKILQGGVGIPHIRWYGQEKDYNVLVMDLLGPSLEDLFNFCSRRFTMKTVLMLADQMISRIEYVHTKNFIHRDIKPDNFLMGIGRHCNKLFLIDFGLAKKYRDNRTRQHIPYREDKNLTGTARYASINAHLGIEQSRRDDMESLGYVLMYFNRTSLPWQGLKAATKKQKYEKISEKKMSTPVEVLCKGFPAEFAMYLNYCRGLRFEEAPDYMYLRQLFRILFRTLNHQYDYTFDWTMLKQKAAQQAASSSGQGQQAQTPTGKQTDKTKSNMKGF
Mitogen-activated protein kinase kinase kinase 11 (Homo sapiens), sequence (Q16584 whole entry, looked up, the tested form may be a part): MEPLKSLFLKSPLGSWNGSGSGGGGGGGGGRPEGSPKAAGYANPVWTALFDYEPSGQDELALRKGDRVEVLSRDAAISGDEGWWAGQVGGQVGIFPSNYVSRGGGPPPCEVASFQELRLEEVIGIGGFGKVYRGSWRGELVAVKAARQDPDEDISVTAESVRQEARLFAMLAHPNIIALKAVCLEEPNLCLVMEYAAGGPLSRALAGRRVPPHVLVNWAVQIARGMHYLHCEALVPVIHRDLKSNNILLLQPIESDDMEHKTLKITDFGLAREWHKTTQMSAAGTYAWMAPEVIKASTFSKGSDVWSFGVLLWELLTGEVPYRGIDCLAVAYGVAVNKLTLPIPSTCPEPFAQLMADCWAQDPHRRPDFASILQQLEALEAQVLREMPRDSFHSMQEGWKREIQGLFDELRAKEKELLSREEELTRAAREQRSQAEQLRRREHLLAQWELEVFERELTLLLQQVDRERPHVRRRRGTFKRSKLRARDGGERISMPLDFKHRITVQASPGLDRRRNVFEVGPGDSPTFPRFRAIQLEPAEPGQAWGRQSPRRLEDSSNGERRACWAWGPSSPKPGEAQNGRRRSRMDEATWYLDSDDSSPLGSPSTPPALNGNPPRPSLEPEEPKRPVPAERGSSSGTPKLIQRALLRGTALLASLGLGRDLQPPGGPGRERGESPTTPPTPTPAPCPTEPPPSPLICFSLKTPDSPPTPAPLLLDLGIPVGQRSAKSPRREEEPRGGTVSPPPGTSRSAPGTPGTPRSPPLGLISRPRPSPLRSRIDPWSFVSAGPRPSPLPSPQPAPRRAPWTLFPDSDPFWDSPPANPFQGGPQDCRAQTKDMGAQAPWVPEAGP
Protein-tyrosine kinase 6, sequence (Q13882 whole entry): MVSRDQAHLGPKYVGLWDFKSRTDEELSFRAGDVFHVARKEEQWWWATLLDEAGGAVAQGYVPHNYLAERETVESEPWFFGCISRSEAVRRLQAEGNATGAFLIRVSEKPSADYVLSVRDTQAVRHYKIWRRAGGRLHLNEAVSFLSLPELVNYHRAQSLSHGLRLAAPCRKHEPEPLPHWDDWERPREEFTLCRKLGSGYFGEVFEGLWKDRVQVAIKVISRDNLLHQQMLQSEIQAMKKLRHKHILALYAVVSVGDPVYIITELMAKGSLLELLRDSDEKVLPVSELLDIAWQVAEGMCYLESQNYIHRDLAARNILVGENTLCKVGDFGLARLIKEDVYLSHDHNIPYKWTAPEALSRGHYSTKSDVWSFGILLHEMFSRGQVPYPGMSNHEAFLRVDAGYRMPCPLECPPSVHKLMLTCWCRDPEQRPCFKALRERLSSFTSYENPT
Tyrosine-protein kinase CSK (Homo sapiens), sequence (P41240 2-450 limits assumed): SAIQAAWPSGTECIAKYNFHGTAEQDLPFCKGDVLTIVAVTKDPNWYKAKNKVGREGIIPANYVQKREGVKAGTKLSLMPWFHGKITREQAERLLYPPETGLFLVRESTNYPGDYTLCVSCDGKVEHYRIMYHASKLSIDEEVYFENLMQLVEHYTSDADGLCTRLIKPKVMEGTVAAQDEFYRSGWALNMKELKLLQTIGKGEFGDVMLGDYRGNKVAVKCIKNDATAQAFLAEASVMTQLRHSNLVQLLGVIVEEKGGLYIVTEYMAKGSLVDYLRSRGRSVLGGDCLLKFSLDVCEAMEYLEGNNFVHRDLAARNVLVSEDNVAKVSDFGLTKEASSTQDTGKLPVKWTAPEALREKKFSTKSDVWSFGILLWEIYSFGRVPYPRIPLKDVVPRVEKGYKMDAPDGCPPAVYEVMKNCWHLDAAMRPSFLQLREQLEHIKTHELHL

CN(C)CCOc1ccc(-c2nc(-c3ccncc3)c(-c3ccc4c(c3)CC/C4=N\O)[nH]2)cc1
% of control [1]: 100%

Nc1cnc(N2CCc3cc(S(=O)(=O)Nc4c(F)cc(Cl)cc4F)cc(N4CCCC4=O)c32)nc1 [TP-020n]
% of control [2]: 100%
% of control [3]: 88%

CCC(=O)N1CC[C@H](Nc2ncnc3c2CN(c2cnc(OC)c(C(F)(F)F)c2)CC3)C1 [LENIOLISIB]
IC50 (D(1A) dopamine receptor): > 30 µM

Cc1cc([C@@H](C)Nc2ccccc2C(=O)O)c2nc(N3CCOCC3)cc(=O)n2c1 [AZD-6482]
% of control [4]: 98%

Cn1cc(-n2cnc3c(NCc4nc5cc(Cl)c(Cl)cc5[nH]4)nc(N4CCOCC4)nc32)cn1
% of control [5]: 3.57%

Cc1cc(CN)cc(C)c1-c1ncn(C)c1-c1cncn1C
% activity ([6]; at 1 µM): > 90%
% activity ([6]; at 10 µM): > 80%

CCc1cccc(CC)c1NC(=O)c1nn(C)c2c1CCc1cnc(Nc3ccc(C(=O)NC4CCN(C)CC4)cc3OC(F)(F)F)nc1-2
IC50 [7]: > 10 µM

CC[C@@H]1[C@H](F)C(=O)N[C@@H]1COc1nccc2cc(C(N)=O)c(OC)cc12 [ZIMLOVISERTIB]
% of inhibition (Insulin receptor; at 0.01 µM): -44.7%
% of inhibition (Insulin receptor; at 0.04 µM): 10.7%
% of inhibition (Insulin receptor; at 0.2 µM): -15.5%
% of inhibition (Insulin receptor; at 1 µM): -21.5%
% of inhibition (Insulin receptor; at 5 µM): -37.4%
% of inhibition [8]: 2%

CN1Cc2nccc(-c3cn(C)nc3-c3ccc(F)cc3)c2C1=O
% of inhibition [9]: -3%

O[C@H]1CC[C@H](Nc2ncc3nc(Nc4c(F)cc(F)cc4F)n([C@H]4CCOC4)c3n2)CC1
% of control [10]: 100%

CN(C)C/C=C/C(=O)Nc1ccc(C(=O)N2CCCC(Nc3ncc(Cl)c(-c4c[nH]c5ccccc45)n3)C2)cc1 (stereo unspecified)
% of control [11]: 100%

Cc1cnc(Nc2ccc(F)cc2Cl)nc1-c1c[nH]c(C(=O)N[C@H](CO)c2cccc(Cl)c2)c1
% of inhibition [12]: 0%

CNCCN1CCC(c2cc(CN(C)C(=O)c3cccc(Oc4ccccc4)c3)ccn2)CC1
% activity [13]: > 90%

N#Cc1cccc(-c2c[nH]c3ncnc(N4CCOCC4)c23)c1
% of control [14]: 38%
